# Test results taken from patent US9260404B1, “Preparation of ambrox from labdanes of Dysoxylum hongkongense, and the preparation of new diterpenoids from Dysoxylum hongkongense” (National Taiwan University, priority 2014, dated 2016).
# Legend:
# HSV-1 (KOS strain) = assay: Anti-HSV-1 plaque reduction assay in Vero cells; format: cell-based, Herpes Simplex Virus-1; settings: for inhibition at 10 µM: Human alphaherpesvirus 1, plaque formation in Vero cells, read-out: inhibition (in vitro inhibitory activity against the HSV-1 virus); for inhibition (in vitro inhibitory activity against the HSV-1 virus): at 10 μM, plaque formation in Vero cells
# Experimental: Anti Herpes Simplex Virus-1 (HSV-1) Assay, Cell Culture and Virus. Vero cells were cultured in minimal essential medium (MEM; GIBCO®, Grand Island, N.Y.) supplemented with 10% fetal calf serum (FCS; Hyclone™, Logan, Utah), 100 U/mL penicillin and 100 μg/mL streptomycin and incubated at 37° C. in a 5% CO2 incubator. To prepare a stock of HSV-1 (KOS strain, VR-1493, ATCC), Vero cells were infected with HSV-1 at a multiplicity of infection points on three plaque forming units (PFU)/cell and harvested at 24 hours postinfection and centrifuged at 1500×g (Centrifuge 5810 R, Eppendorf) at 4° C. for 20 minutes. The supernatant was collected and stored at −70° C. for use.
# Plaque Reduction Assay. The bioassay followed a procedure described previously (Kuo et al., Samarangenin B from Limonium sinense Suppresses Herpes Simplex Virus Type 1 Replication in Vero Cells by Regulation of Viral Macromolecular Synthesis. Antimicrob. Agents Chemother., 2002, 46(9): 2854-2864.). […] The viruses were adsorbed for 1 hour at 37° C. and 1% methylcellulose was added to each well. After 5 days, the virus plaques formed in Vero cells were counted by crystal violet staining. The activities of various compounds and acyclovir for inhibition of plaque formation were calculated.
# [1] = tested on: elastase release by human neutrophils; assay: Elastase release by human neutrophils in response to FMLP/CB; format: cell-based; settings: 10 μg/mL
# Experimental: (§1) Anti-inflammatory Assays, Inhibitory Effect on Superpxide Anion Generation and Elastase Release by Human Neutrophils. Neutrophils were obtained by means of dextran sedimentation and Ficoll centrifugation. Superoxide generation and elastase release were carried out according to a procedure described previously (Hwang et al., Inhibition of Superoxide Anion and Elastase Release in Human Neutrophils by 3′-Isopropoxychalcone via a cAMP-dependent Pathway. Br. J. Pharmacol., 2006, 148(1): 78-87.; and Liaw et al., Frajunolides E-K, Briarane Diterpenes from Junceella fragilis. J. Nat. Prod., 2008, 71(9): 1551-1556.). Superoxide anion production was assayed by monitoring the superoxide dismutase-inhibitable reduction of ferricytochrome c. Elastase release experiments were performed using MeO-Suc-Ala-Ala-Pro-Val p-nitroanilide as the elastase substrate.
# [2] = tested on: human hepatocellular carcinoma Hep-G2; assay: Cytotoxic assay (MTT), Hep-G2; format: cell-based
# Experimental: (§2) Cytotoxic Assay. Human hepatocellular carcinoma Hep-G2, human colon adenocarcinoma WiDr and human laryngeal carcinoma Hep-2 were used as the targets for research, and an antitumor drug, mitomycin C, was the control. The effective dosage (ED50, μg/mL) of the compounds on the cancer cell cytotoxicity was determined by the well-known cytotoxicity assay (3-(4,5-dimethylthiazol-2-yl)-2,5-diphenyltetrazolium bromide (MTT) assay) in the art.
# [3] = tested on: human colon adenocarcinoma WiDr; assay: Cytotoxic assay (MTT), WiDr; format: cell-based
# Experimental: as §2
# [4] = tested on: human laryngeal carcinoma Hep-2; assay: Cytotoxic assay (MTT), Hep-2; format: cell-based; settings: Hep-2, MTT assay
# Experimental: as §2
# [5] = tested on: superoxide anion generation by human neutrophils; assay: Superoxide anion generation by human neutrophils in response to FMLP/CB; format: cell-based; settings: 10 μg/mL
# Experimental: as §1
compound,measurement,setting,value
"C=C[C@@](C)(O)[C@H]1C[C@@H]2[C@@]3(C)CCC(=O)C(C)(C)[C@@H]3CC[C@@]2(C)O1 [Compound 10, Dysongensin D]",inhibition at 10 µM,HSV-1 (KOS strain),25.2 ± 6%
"C=C[C@](C)(O)[C@H]1C[C@@H]2[C@@]3(C)CCC(=O)C(C)(C)[C@@H]3CC[C@@]2(C)O1 [Compound 11, Dysongensin E]",anti-inflammatory effect on elastase release,[1],31.29±6.67%
"C=C[C@@]1(C)O[C@]2(C)CC[C@H]3C(C)(C)C(=O)CC[C@]3(C)[C@H]2C[C@H]1O [Compound 8, Dysongensin B]",ED50 cytotoxic activity against Hep-G2 cells,[2],18.05 ± 0.58 µg/mL
same,ED50 cytotoxic activity against WiDr cells,[3],19.13 ± 0.56 µg/mL
same,ED50 cytotoxic activity against Hep-2 cells,[4],16.07 ± 0.17 µg/mL
"C=C[C@@](O)(CO)[C@H]1C[C@@H]2[C@@]3(C)CCC4C[C@@]4(C)[C@@H]3CC[C@@]2(C)O1 (stereo partly drawn) [Compound 13, Dysongensin G]",inhibition (in vitro inhibitory activity against the HSV-1 virus),HSV-1 (KOS strain),29.3±9.0%
same,ED50 cytotoxic activity against Hep-G2 cells,[2],37.78 ± 0.81 µg/mL
"C=C[C@@](C)(O)[C@@H]1C[C@@H]2[C@@]3(C)CCC(=O)C(C)(C)[C@@H]3CC[C@@]2(C)O1 [Compound 9, Dysongensin C]",inhibition (in vitro inhibitory activity against the HSV-1 virus),HSV-1 (KOS strain),32.7±4.0%
"C=C[C@](C)(O)[C@H]1C[C@@H]2[C@@]3(C)CC[C@H](O)C(C)(C)[C@@H]3CC[C@@]2(C)O1 [Compound 12, Dysongensin F]",ED50 cytotoxic activity against Hep-2 cells,[4],17.92 ± 0.25 µg/mL
Dysongensin A [Compound 1],ED50 cytotoxic activity against Hep-G2 cells,[2],20.34 ± 0.58 µg/mL
same,ED50 cytotoxic activity against WiDr cells,[3],18.67 ± 0.56 µg/mL
"C=C[C@](O)(CO)[C@@H]1C[C@@H]2[C@@]3(C)CCC4C[C@@]4(C)[C@@H]3CC[C@@]2(C)O1 (stereo partly drawn) [Compound 14, Dysongensin H]",inhibition at 10 µM,HSV-1 (KOS strain),29.7 ± 6%
same,anti-inflammatory effect on superoxide anion generation,[5],25.33±4.04%
same,ED50 cytotoxic activity against Hep-G2 cells,[2],16.86 ± 0.85 µg/mL
same,ED50 cytotoxic activity against WiDr cells,[3],15.45 ± 0.73 µg/mL
